In the test the target is T1, human complement factor D (Homo sapiens, UniProt P00746).
T1 construct: purchased R&D Systems 1824-SE
T1 sequence (P00746 26-253): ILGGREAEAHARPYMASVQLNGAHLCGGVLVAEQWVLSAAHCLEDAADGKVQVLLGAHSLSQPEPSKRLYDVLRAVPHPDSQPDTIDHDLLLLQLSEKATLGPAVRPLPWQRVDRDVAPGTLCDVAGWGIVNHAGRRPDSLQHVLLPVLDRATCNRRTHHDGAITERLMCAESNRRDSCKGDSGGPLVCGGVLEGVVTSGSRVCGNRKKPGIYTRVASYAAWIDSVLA
Briefly: In vitro enzyme inhibition (Z-Lys-SBzl/DTNB absorbance assay). The test is classed as biochemical. Conditions: Complement Factor D (R&D Systems), substrate Z-Lys-SBzl, A405 nm; read-out: CFD IC50. A digest of the protocol:
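Factor D (6.25 ng/μL before addition) preincubated 5 min RT with compound (8 points from 50 μM, 6-fold, 0.5% DMSO final) in 50 mM Tris/HCl pH 7.5, 1 M NaCl, then Z-Lys-SBzl/DTNB added (200 μM each before addition). A405 read kinetically every 30 s for 60 min; IC50 from variable-slope fit, controls with and without enzyme.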
By IC50 is commonly meant the concentration that gives 50% inhibition. With `COC(=O)c1nn(CC(=O)N2[C@@H]3CC[C@@H](C3)[C@H]2C(=O)Nc2cccc(Cl)n2)c2ccccc12` [Example 82, methyl 1-(2-((1R,3S,4S)-3-((6-chloropyridin-2-yl)carbamoyl)-2-azabicyclo[2.2.1]heptan-2-yl)-2-oxoethyl)-1H-indazole-3-carboxylate], the IC50 is 1000 to 10000 nM.

Consider `CC(=O)c1nn(CC(=O)N2[C@@H]3CC[C@@H](C3)[C@H]2C(=O)Nc2cccc(Cl)n2)c2ccc(C)cc12` [Example 83, (1R,3S,4S)-2-(2-(3-acetyl-5-methyl-1H-indazol-1-yl)acetyl)-N-(6-chloropyridin-2-yl)-2-azabicyclo[2.2.1]heptane-3-carboxamide], for which the IC50 lay within 100 to 1000 nM.

As to `O=C(O)c1nn(CC(=O)N2[C@@H]3CC[C@@H](C3)[C@H]2C(=O)Nc2cccc(Cl)n2)c2ccccc12` [Example 84, 1-(2-((1R,3S,4S)-3-((6-chloropyridin-2-yl)carbamoyl)-2-azabicyclo[2.2.1]heptan-2-yl)-2-oxoethyl)-1H-indazole-3-carboxylic acid], the IC50 was over 10000 nM.

`CC(O)c1nn(CC(=O)N2[C@@H]3CC[C@@H](C3)[C@H]2C(=O)Nc2cccc(Cl)n2)c2ccccc12` (stereo partly drawn) [Example 85, (1R,3S,4S)-N-(6-chloropyridin-2-yl)-2-(2-(3-(1-hydroxyethyl)-1H-indazol-1-yl)acetyl)-2-azabicyclo[2.2.1]heptane-3-carboxamide]: the half-inhibitory concentration (IC50) was over 10000 nM.

With `O=C(Nc1cccc(Cl)n1)[C@@H]1[C@H]2CC[C@H](C2)N1C(=O)Cn1nc(C(=O)N2CCC2)c2ccccc21` [Example 86, (1R,3S,4S)-2-(2-(3-(azetidine-1-carbonyl)-1H-indazol-1-yl)acetyl)-N-(6-chloropyridin-2-yl)-2-azabicyclo[2.2.1]heptane-3-carboxamide], the IC50 is over 10000 nM.

In the case of `CC(=O)c1nn(CC(=O)N2[C@@H]3CC[C@@H](C3)[C@H]2C(=O)Nc2cccc(Cl)n2)c2ccc(Cl)cc12` [Example 87, (1R,3S,4S)-2-(2-(3-acetyl-5-chloro-1H-indazol-1-yl)acetyl)-N-(6-chloropyridin-2-yl)-2-azabicyclo[2.2.1]heptane-3-carboxamide], the IC50 lay within 100 to 1000 nM.

As to `CNC(=O)c1nn(CC(=O)N2[C@@H]3CC[C@@H](C3)[C@H]2C(=O)Nc2cccc(Cl)n2)c2ccccc12` [Example 88, 1-(2-((1R,3S,4S)-3-((6-chloropyridin-2-yl)carbamoyl)-2-azabicyclo[2.2.1]heptan-2-yl)-2-oxoethyl)-N-methyl-1H-indazole-3-carboxamide], the IC50 fell in the range of 1000 to 10000 nM.

Turning to `O=C(NCCO)c1nn(CC(=O)N2[C@@H]3CC[C@@H](C3)[C@H]2C(=O)Nc2cccc(Cl)n2)c2ccccc12` [Example 89, 1-(2-((1R,3S,4S)-3-((6-chloropyridin-2-yl)carbamoyl)-2-azabicyclo[2.2.1]heptan-2-yl)-2-oxoethyl)-N-(2-hydroxyethyl)-1H-indazole-3-carboxamide], the IC50 fell in the range of 1000 to 10000 nM.

For `CC(=O)c1nn(CC(=O)N2[C@@H]3CC[C@@H](C3)[C@H]2C(=O)Nc2cccc(Cl)n2)c2ccc(Br)cc12` [Example 90, (1R,3S,4S)-2-(2-(3-acetyl-5-bromo-1H-indazol-1-yl)acetyl)-N-(6-chloropyridin-2-yl)-2-azabicyclo[2.2.1]heptane-3-carboxamide], the concentration for half-maximal inhibition (IC50) lay within 100 to 1000 nM.

`CC(=O)c1nn(CC(=O)N2[C@@H]3CC[C@@H](C3)[C@H]2C(=O)Nc2cccc(Cl)n2)c2ccc(F)cc12` [Example 91, (1R,3S,4S)-2-(2-(3-acetyl-5-fluoro-1H-indazol-1-yl)acetyl)-N-(6-chloropyridin-2-yl)-2-azabicyclo[2.2.1]heptane-3-carboxamide]: the IC50 was in the range of 100 to 1000 nM.

Regarding `CC(=O)c1nn(CC(=O)N2[C@@H]3CC[C@@H](C3)[C@H]2C(=O)Nc2cccc(Cl)n2)c2ccc(C#N)cc12` [Example 92, (1R,3S,4S)-2-(2-(3-acetyl-5-cyano-1H-indazol-1-yl)acetyl)-N-(6-chloropyridin-2-yl)-2-azabicyclo[2.2.1]heptane-3-carboxamide], the half-inhibitory concentration (IC50) was in the range of 100 to 1000 nM.

In the case of `NC(=O)Cc1nn(CC(=O)N2[C@@H]3CC[C@@H](C3)[C@H]2C(=O)Nc2cccc(Cl)n2)c2ccccc12` [Example 94, (1R,3S,4S)-2-(2-(3-(2-amino-2-oxoethyl)-1H-indazol-1-yl)acetyl)-N-(6-chloropyridin-2-yl)-2-azabicyclo[2.2.1]heptane-3-carboxamide], the half-maximal inhibitory concentration (IC50) was 1000 to 10000 nM.

`NC(=O)c1nn(CC(=O)N2[C@@H]3CC[C@@H](C3)[C@H]2C(=O)Nc2cccc(Cl)n2)c2ccncc12` [Example 95, 1-(2-((1R,3S,4S)-3-((6-chloropyridin-2-yl)carbamoyl)-2-azabicyclo[2.2.1]heptan-2-yl)-2-oxoethyl)-1H-pyrazolo[4,3-c]pyridine-3-carboxamide]: the half-inhibitory concentration (IC50) lay within 100 to 1000 nM.

Turning to `COc1cc(Cl)nc(NC(=O)[C@@H]2[C@H]3CC[C@H](C3)N2C(=O)Cn2nc(C(N)=O)c3ccccc32)c1` [Example 97, 1-(2-((1R,3S,4S)-3-((6-chloro-4-methoxypyridin-2-yl)carbamoyl)-2-azabicyclo[2.2.1]heptan-2-yl)-2-oxoethyl)-1H-indazole-3-carboxamide], the IC50 was in the range of 100 to 1000 nM.

In the case of `NC(=O)c1nn(CC(=O)N2[C@@H]3CC[C@@H](C3)[C@H]2C(=O)NCc2cccc(Cl)c2F)c2ccncc12` [Example 98, 1-(2-((1R,3S)-3-((3-chloro-2-fluorobenzyl)carbamoyl)-2-azabicyclo[2.2.1]heptan-2-yl)-2-oxoethyl)-1H-pyrazolo[4,3-c]pyridine-3-carboxamide], the concentration for half-maximal inhibition (IC50) fell in the range of 1000 to 10000 nM.

Consider `NC(=O)n1cc(CC(=O)N2[C@@H]3CC[C@@H](C3)[C@H]2C(=O)NCc2cccc(Cl)c2F)c2ccccc21` [Example 99, 3-(2-((1R,3S,4S)-3-((3-chloro-2-fluorobenzyl)carbamoyl)-2-azabicyclo[2.2.1]heptan-2-yl)-2-oxoethyl)-1H-indole-1-carboxamide], for which the IC50 lay within 100 to 1000 nM.

Take `NC(=O)n1nc(CC(=O)N2[C@@H]3CC[C@@H](C3)[C@H]2C(=O)NCc2cccc(Cl)c2F)c2ccccc21` [Example 100, 3-(2-((1R,3S,4S)-3-((3-chloro-2-fluorobenzyl)carbamoyl)-2-azabicyclo[2.2.1]heptan-2-yl)-2-oxoethyl)-1H-indazole-1-carboxamide]: the half-inhibitory concentration (IC50) was in the range of 100 to 1000 nM.

As to `N#Cc1ccc(Cl)nc1NC(=O)[C@@H]1[C@H]2CC[C@H](C2)N1C(=O)Cn1nc(C(N)=O)c2ccccc21` [Example 101, 1-(2-((1R,3S,4S)-3-((6-chloro-3-cyanopyridin-2-yl)carbamoyl)-2-azabicyclo[2.2.1]heptan-2-yl)-2-oxoethyl)-1H-indazole-3-carboxamide], the half-maximal inhibitory concentration (IC50) is 100 to 1000 nM.

Turning to `N#Cc1cc(Cl)nc(NC(=O)[C@@H]2[C@H]3CC[C@H](C3)N2C(=O)Cn2nc(C(N)=O)c3ccccc32)c1` [Example 102, 1-(2-((1R,3S,4S)-3-((6-chloro-4-cyanopyridin-2-yl)carbamoyl)-2-azabicyclo[2.2.1]heptan-2-yl)-2-oxoethyl)-1H-indazole-3-carboxamide], the IC50 fell in the range of 100 to 1000 nM.
